# US8063018B2, “Bivalent thrombin binding molecules comprising linkers” (National Research Council of Canada, priority 2004, dated 2011)
# Target: thrombin (Homo sapiens, UniProt P00734)
# Assay: Fibrinogen clotting assay catalyzed by thrombin
# Format: biochemical
# Details: IC50, nM (25° C.), 25° C.; concentration needed to double the clotting time
# Experimental: Curves represent OD420 time course after the addition of 0.6 nM thrombin in the presence of (♦) 0 nM; (◯) 0.5 nM; (□) 1 nM; (Δ) 1.5 nM; (⋄) 2.5 nM; (●) 3.75 nM; (▪) 6.25 nM; and (▴) […] of the inhibitor with linker (GS)n and n=2 (SEQ. ID. NO. 50) (a); n=4 (SEQ. ID. NO. 51) (b); n=6 (SEQ. ID. NO. 52) (c); n=8 (SEQ. ID. NO. 53) (d); n=10 (SEQ. ID. NO. 54) (e); and in the presence of (♦) 0 nM; (◯) 1 nM; (□) 2 nM; (Δ) 4 nM; (⋄) 6 nM; (●) 10 nM; (▪) 15 nM; and (▴) 25 nM of the inhibitor with linker (GS)n and n=12 (SEQ. ID. NO. 55) (f); n=14 (SEQ. ID. NO. 56) (g), at 37° C. The onset clotting time was determined as an intersection of the baseline and the extrapolated linear portion of the OD change curve. […] Curves (i) represent OD420 time course in the presence of (A) 0 nM; (◯) 1 nM; (□) 2 nM; (Δ) 4 nM; (⋄) 6 nM; and (●) 15 nM of the inhibitor with linker […] (SEQ. ID. NO. 103), at 37° C. […] represent OD420 time course in the presence of (◯) 0 nM; (□) 2 nM; (Δ) 4 nM; (⋄) 6 nM; (●) 8 nM; (▪) 10 nM; (▴) 12 nM; and (♦) 15 nM; of the inhibitor with linker […] (SEQ. ID. NO. 58) at 25° C. Curves (k) represent OD420 time course in the presence of (◯) 0 nM; (□) 0.5 nM; (Δ) 1 nM; (⋄) 2 nM; (●) 3 nM; (▪) 4 nM; (▴) 5 nM; and (♦) 6 nM; of the inhibitor with linker […] (SEQ. ID. NO. 105) at 37° C. Curves (I) represent OD420 time course in the presence of (◯) 0 nM; (□) 0.25 nM; (Δ) 0.5 nM; (⋄) 1 nM; (●) 1.5 nM; (▪) 2 nM; and (▴) 2.5 nM; of the inhibitor with linker […] (SEQ. ID. NO. 104) at 37° C. Curves (m) represent OD420 time course in the presence of (◯) 0 nM; (□) 2 nM; (Δ) 4 nM; (⋄) 6 nM; (●) 8 nM; (▴) 10 nM; and (A) 12 nM; of the inhibitor with linker […] (SEQ. ID. NO. 106) at 37° C. Curves (n) represent OD420 time course in the presence of (◯) 0 nM; (□) 1 nM; (Δ) 2 nM; (⋄) 3 nM; (●) 4 nM; (▪) 5 nM; (▴) 6 nM; and (♦) 7 nM; of the inhibitor with linker […] (SEQ. ID. NO. 107) at 37° C. Curves (o) represent OD420 time course in the presence of (◯) 0 nM; (□) 4 nM; and (Δ) 8 nM; of the inhibitor with linker GQSHNR (SEQ. ID. NO. 108) at 37° C.
# Other experimental conditions were as used for the assays described in FIG. 2.
# Clotting assays were carried out by use of the protocols described previously (DiMaio and others, 1990, 21698-21703; Witting and others, 1992, 737-743). The assay employs bovine plasma fibrinogen dissolved at 0.1% in 50 mM Tris-Cl, 100 mM NaCl, 0.1% PEG-8000 at pH 7.6 (i.e. the clotting buffer). Each assay mixture contained a certain concentration of the peptide, and the reaction was started by the addition of human thrombin to a final concentration of 0.6-1.2 nM. Optical absorbance increase at 420 nm caused by fibrin clot formation was measured at 25° C. or 37° C. using the Spectramax plate reader. The onset clotting time was determined as an intersection of the baseline and the extrapolated linear portion of the OD change curve. The concentration of a peptide needed to double the clotting time was defined as IC50 (DiMaio and others, 1990, 21698-21703). Kinetic amidolytic curves were obtained in clotting buffer at 25° C. using eight inhibitor concentrations and three to five concentrations of the chromogenic substrate S-2238 (Chromogenix) (DiMaio and others, 1990, 21698-21703). Inhibition constants were extracted from Lineweaver-Burk equation by using weighted linear regression. Errors in Ki determination were estimated by using Monte-Carlo sampling with 1-3% variance of the experimental points.
row,Compound,IC50 [nM]
1,CC[C@H](C)[C@H](NC(=O)[C@H](CCC(=O)O)NC(=O)[C@H](CCC(=O)O)NC(=O)[C@H](Cc1ccccc1)NC(=O)[C@H](CC(=O)O)NC(=O)CNC(=O)[C@H](CO)NC(=O)[C@@H](NC(=O)[C@H](CCCCN)NC(=O)[C@H](CCC(=O)O)NC(=O)[C@H](Cc1ccc(O)cc1)NC(=O)[C@H](Cc1c[nH]cn1)NC(=O)[C@@H]1CCCN1C(=O)[C@H](CO)NC(=O)CNC(=O)[C@H](CO)NC(=O)[C@@H](NC(=O)[C@H](CCCCN)NC(=O)[C@H](CCC(=O)O)NC(=O)[C@H](Cc1ccc(O)cc1)NC(=O)[C@H](Cc1c[nH]cn1)NC(=O)[C@@H]1CCCN1C(=O)[C@H](CO)NC(=O)CNC(=O)[C@H]1CCCCN1C(=O)[C@H](CCCNC(=N)N)NS(=O)(=O)c1ccc(C(C)(C)C)cc1)C(C)C)C(C)C)C(=O)N1CCC[C@H]1C(=O)N[C@@H](CCC(=O)O)C(=O)N[C@@H](CCC(=O)O)C(=O)N[C@@H](Cc1ccc(O)cc1)C(=O)N[C@@H](CC(C)C)C(=O)N[C@@H](CCC(N)=O)C(=O)O [P3161],0.7
2,CC[C@H](C)[C@H](NC(=O)[C@H](CCC(=O)O)NC(=O)[C@H](CCC(=O)O)NC(=O)[C@H](Cc1ccccc1)NC(=O)[C@H](CC(=O)O)NC(=O)CNC(=O)[C@H](CO)NC(=O)[C@@H](NC(=O)[C@H](CCCCN)NC(=O)[C@H](CCC(=O)O)NC(=O)[C@H](Cc1ccc(OP(=O)(O)O)cc1)NC(=O)[C@H](Cc1c[nH]cn1)NC(=O)[C@@H]1CCCN1C(=O)[C@H](CO)NC(=O)CNC(=O)[C@H](CO)NC(=O)[C@@H](NC(=O)[C@H](CCCCN)NC(=O)[C@H](CCC(=O)O)NC(=O)[C@H](Cc1ccc(OP(=O)(O)O)cc1)NC(=O)[C@H](Cc1c[nH]cn1)NC(=O)[C@@H]1CCCN1C(=O)[C@H](CO)NC(=O)CNC(=O)[C@H]1CCCCN1C(=O)[C@H](CCCNC(=N)N)NS(=O)(=O)c1ccc(C(C)(C)C)cc1)C(C)C)C(C)C)C(=O)N1CCC[C@H]1C(=O)N[C@@H](CCC(=O)O)C(=O)N[C@@H](CCC(=O)O)C(=O)N[C@@H](Cc1ccc(O)cc1)C(=O)N[C@@H](CC(C)C)C(=O)N[C@@H](CCC(N)=O)C(=O)O [P3162],19 ± 1
3,CC[C@H](C)[C@H](NC(=O)[C@H](CCC(=O)O)NC(=O)[C@H](CCC(=O)O)NC(=O)[C@H](Cc1ccccc1)NC(=O)[C@H](CC(=O)O)NC(=O)CNC(=O)[C@H](CO)NC(=O)CNC(=O)[C@H](CO)NC(=O)CNC(=O)[C@H](CO)NC(=O)CNC(=O)[C@H](CO)NC(=O)CNC(=O)[C@H](CO)NC(=O)CNC(=O)[C@H](CCCCN)NC(=O)CNC(=O)[C@H](CO)NC(=O)CNC(=O)[C@H](CO)NC(=O)CNC(=O)[C@H](CO)NC(=O)CNC(=O)[C@H](CO)NC(=O)CNC(=O)[C@H]1CCCCN1C(=O)[C@H](CCCNC(=N)N)NS(=O)(=O)c1ccc(C(C)(C)C)cc1)C(=O)N1CCC[C@H]1C(=O)N[C@@H](CCC(=O)O)C(=O)N[C@@H](CCC(=O)O)C(=O)N[C@@H](Cc1ccc(O)cc1)C(=O)N[C@@H](CC(C)C)C(=O)N[C@@H](CCC(N)=O)C(=O)O [P3174],1.6 ± 0.9

# Same assay, conditions: IC50, nM (37° C.), 37° C.; concentration needed to double the clotting time
row,Compound,IC50 [nM]
1,CC[C@H](C)[C@H](NC(=O)[C@H](CCC(=O)O)NC(=O)[C@H](CCC(=O)O)NC(=O)[C@H](Cc1ccccc1)NC(=O)[C@H](CC(=O)O)NC(=O)CNC(=O)[C@H](CO)NC(=O)CNC(=O)[C@H](CO)NC(=O)CNC(=O)[C@H]1CCCCN1C(=O)[C@H](CCCN=C(N)N)NS(=O)(=O)c1ccc(C(C)(C)C)cc1)C(=O)N1CCC[C@H]1C(=O)N[C@@H](CCC(=O)O)C(=O)N[C@@H](CCC(=O)O)C(=O)N[C@@H](Cc1ccc(O)cc1)C(=O)N[C@@H](CC(C)C)C(=O)N[C@@H](CCC(N)=O)C(=O)O [P3149],9.7 ± 0.7
2,CC[C@H](C)[C@H](NC(=O)[C@H](CCC(=O)O)NC(=O)[C@H](CCC(=O)O)NC(=O)[C@H](Cc1ccccc1)NC(=O)[C@H](CC(=O)O)NC(=O)CNC(=O)[C@H](CO)NC(=O)CNC(=O)[C@H](CO)NC(=O)CNC(=O)[C@H](CO)NC(=O)CNC(=O)[C@H](CO)NC(=O)CNC(=O)[C@H](CO)NC(=O)CNC(=O)[C@H](CO)NC(=O)CNC(=O)[C@H](CO)NC(=O)CNC(=O)[C@H](CO)NC(=O)CNC(=O)[C@H]1CCCCN1C(=O)[C@H](CCCN=C(N)N)NS(=O)(=O)c1ccc(C(C)(C)C)cc1)C(=O)N1CCC[C@H]1C(=O)N[C@@H](CCC(=O)O)C(=O)N[C@@H](CCC(=O)O)C(=O)N[C@@H](Cc1ccc(O)cc1)C(=O)N[C@@H](CC(C)C)C(=O)N[C@@H](CCC(N)=O)C(=O)O [P3152],0.7 ± 0.1
3,CC[C@H](C)[C@H](NC(=O)[C@H](CCC(=O)O)NC(=O)[C@H](CCC(=O)O)NC(=O)[C@H](Cc1ccccc1)NC(=O)[C@H](CC(=O)O)NC(=O)CNC(=O)[C@H](CO)NC(=O)CNC(=O)[C@H](CO)NC(=O)CNC(=O)[C@H](CO)NC(=O)CNC(=O)[C@H](CO)NC(=O)CNC(=O)[C@H](CO)NC(=O)CNC(=O)[C@H](CO)NC(=O)CNC(=O)[C@H](CO)NC(=O)CNC(=O)[C@H](CO)NC(=O)CNC(=O)[C@@H](N)CSSC[C@H](NC(=O)CNC(=O)[C@H]1CCCCN1C(=O)[C@H](CCCNC(=N)N)NS(=O)(=O)c1ccc(C(C)(C)C)cc1)C(=O)O)C(=O)N1CCC[C@H]1C(=O)N[C@@H](CCC(=O)O)C(=O)N[C@@H](CCC(=O)O)C(=O)N[C@@H](Cc1ccc(O)cc1)C(=O)N[C@@H](CC(C)C)C(=O)N[C@@H](CCC(N)=O)C(=O)O [P3172-P3165],1.1 ± 0.2
4,CC[C@H](C)[C@H](NC(=O)[C@H](CCC(=O)O)NC(=O)[C@H](CCC(=O)O)NC(=O)[C@H](Cc1ccccc1)NC(=O)[C@H](CC(=O)O)NC(=O)CNC(=O)[C@H](CC(N)=O)NC(=O)[C@H](CO)NC(=O)[C@@H](NC(=O)[C@H](CCCCN)NC(=O)[C@H](CC(=O)O)NC(=O)[C@@H](NC(=O)[C@@H]1CCCN1C(=O)[C@@H](NC(=O)[C@H](CC(N)=O)NC(=O)[C@H](CC(C)C)NC(=O)[C@H](CC(=O)O)NC(=O)[C@H](CC(C)C)NC(=O)[C@@H](NC(=O)CNC(=O)[C@H]1CCCCN1C(=O)[C@H](CCCNC(=N)N)NS(=O)(=O)c1ccc(C(C)(C)C)cc1)[C@@H](C)O)[C@@H](C)O)C(C)C)[C@@H](C)O)C(=O)N1CCC[C@H]1C(=O)N[C@@H](CCC(=O)O)C(=O)N[C@@H](CCC(=O)O)C(=O)N[C@@H](Cc1ccc(O)cc1)C(=O)N[C@@H](CC(C)C)C(=O)N[C@@H](CCC(N)=O)C(=O)O [P3181],1.9 ± 0.2
5,CC[C@H](C)[C@H](NC(=O)[C@H](CCC(=O)O)NC(=O)[C@H](CCC(=O)O)NC(=O)[C@H](Cc1ccccc1)NC(=O)[C@H](CC(=O)O)NC(=O)CNC(=O)[C@H](CC(=O)O)NC(=O)[C@H](CC(N)=O)NC(=O)[C@H](Cc1c[nH]cn1)NC(=O)[C@H](CC(C)C)NC(=O)[C@H](CCC(N)=O)NC(=O)[C@@H]1CCCN1C(=O)[C@H](CCCNC(=N)N)NC(=O)[C@@H]1CCCN1C(=O)[C@@H](NC(=O)[C@@H](NC(=O)[C@H](CO)NC(=O)CNC(=O)[C@H]1CCCCN1C(=O)[C@H](CCCNC(=N)N)NS(=O)(=O)c1ccc(C(C)(C)C)cc1)C(C)C)C(C)C)C(=O)N1CCC[C@H]1C(=O)N[C@@H](CCC(=O)O)C(=O)N[C@@H](CCC(=O)O)C(=O)N[C@@H](Cc1ccc(O)cc1)C(=O)N[C@@H](CC(C)C)C(=O)N[C@@H](CCC(N)=O)C(=O)O [P3209],1.1
